Measured values taken from patent US8961930B2, “Isatin derivatives for use as in vivo imaging agents” (Imperial Innovations Limited, priority 2008, dated 2015).

Legend:
Format in all cases: biochemical
[1] = biological target: T1, caspase 1 (Homo sapiens, UniProt P29466); test: Fluorimetric in vitro caspase inhibition assay (7-AMC), caspase 1; conditions: recombinant human caspase 1, 10 μM Ac-YVAD-AMC; read-out: Caspase EC50 (nM), 1/6/8: caspase 1
T1 construct: purchased Biomol International, UK
T1 sequence (P29466 120-297 limits assumed): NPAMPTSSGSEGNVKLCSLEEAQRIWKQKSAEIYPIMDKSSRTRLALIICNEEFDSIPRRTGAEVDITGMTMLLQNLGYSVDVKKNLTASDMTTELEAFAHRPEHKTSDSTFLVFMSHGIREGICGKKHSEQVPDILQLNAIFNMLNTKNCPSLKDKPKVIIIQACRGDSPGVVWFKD
T1 sequence (P29466 317-404 limits assumed): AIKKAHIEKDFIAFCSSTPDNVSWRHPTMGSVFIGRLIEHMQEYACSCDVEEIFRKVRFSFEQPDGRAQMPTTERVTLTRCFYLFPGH
Procedure: (§1) Recombinant human caspases-1, -3, -6, -7, and -8 and their peptide-specific substrates were purchased from Biomol International, UK Inhibition of the recombinant caspases by non-radioactive isatins was assessed using a fluorometric assay that measures the accumulation of a fluorogenic product, 7-amino-4-methylcoumarin (7-AMC). All assays were performed in 96-well plates at a volume of 200 μl per well. The assays were performed at 37° C. in an appropriate reaction buffer as described below for each caspase. For caspase 1, the buffer comprised of 0.1% CHAPS, 100 mM NaCl, 5 mM 2-mercaptoethanol, 100 mM HEPES (pH 7.4), 2 mM EDTA, 10% sucrose, and 10 μM of the peptide substrate Ac-YVAD-AMC. For caspase 3: 20 mM HEPES (pH 7.4), 10% sucrose, 100 mM NaCl, 0.1% CHAPS, 2 m, mM EDTA, and 10 μM Ac-DEVD-AMC. For caspase 6: 20 mM HEPES (pH 7.4), 10% sucrose, 100 mM NaCl, 0.1% CHAPS, 2 mM EDTA, and 10 μM Ac-VEID-AMC. For caspase 7: 20 mM HEPES (pH 7.4), 10% sucrose, 5 mM 2-mercaptoethanol, 100 mM NaCl, 0.1% CHAPS, 2 mM EDTA, 10 μM Ac-DEVD-AMC. For caspase 8: 20 mM HEPES (pH 7.4), 10% sucrose, 100 mM NaCl, 0.1% CHAPS, 2 mM EDTA, and 10 μM Ac-IETD-AMC. The Buffers contained non-radioactive isatins in DMSO at a final concentration of 500, 50, 5 μM; 500, 50, 5 nM; 500, 50, 5 pM; the final concentration of DMSO in all wells was 5% of the total volume. Recombinant caspases were used at 0.5 units per assay (˜500 pmol substrate converted per h). All reagents except the peptide substrate were pre-incubated for 10 min. The peptide substrate (final concentration 10 μM) was then added and the plate was incubated for a further 30 min; 30 min was selected after initial linearity study where reaction was assessed after 10, 30, 60 or 90 min. The 30 min time point was selected. Respective control wells contained all reaction components without enzyme. The amount of 7-AMC produced was measured on a fluorescence microplate reader (Victor2; Perkin-Elmer Life sciences) at excitation and emission wavelengths of 355 nm and 460 nm, respectively. The concentration of isatin that inhibits the caspase activity by 50% (EC50) was estimated by non-linear regression analysis using GraphPad Prism (Version 4.0 for Windows, GraphPad Software, San Diego Calif. USA). All the isatins were analyzed in duplicate; the assays were repeated once. Known compounds 13-16 were included as reference compounds.
(§2) The data are the average for two runs, each of which was duplicated, at nine concentrations ranging from 5 pM to 500 μM; the drug concentration required to inhibit each enzyme by 50% (EC50) was obtained from nonlinear regression analysis of the inhibition profiles.

[2] = biological target: T2, caspase 8 (Homo sapiens, UniProt Q14790); test: Fluorimetric in vitro caspase inhibition assay (7-AMC), caspase 8; conditions: recombinant human caspase 8, 10 μM Ac-IETD-AMC; read-out: Caspase EC50 (nM), 1/6/8: caspase 8
T2 construct: purchased Biomol International, UK
Procedure: as §1, §2

[3] = biological target: T3, caspase 6 (Homo sapiens, UniProt P55212); test: Fluorimetric in vitro caspase inhibition assay (7-AMC), caspase 6; conditions: recombinant human caspase 6, 10 μM Ac-VEID-AMC; read-out: Caspase EC50 (nM), 1/6/8: caspase 6
T3 construct: purchased Biomol International, UK
T3 sequence (P55212 24-179 limits assumed): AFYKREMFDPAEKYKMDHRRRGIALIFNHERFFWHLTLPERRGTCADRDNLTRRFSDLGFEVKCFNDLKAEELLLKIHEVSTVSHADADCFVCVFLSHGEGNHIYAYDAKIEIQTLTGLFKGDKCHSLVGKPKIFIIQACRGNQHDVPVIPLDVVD
T3 sequence (P55212 194-293 limits assumed): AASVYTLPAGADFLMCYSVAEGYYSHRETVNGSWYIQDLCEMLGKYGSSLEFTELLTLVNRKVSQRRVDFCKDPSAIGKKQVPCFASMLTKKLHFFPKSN
Procedure: as §1, §2

[4] = biological target: T4, caspase 7 (Homo sapiens, UniProt P55210); test: Fluorimetric in vitro caspase inhibition assay (7-AMC), caspase 7; conditions: recombinant human caspase 7, 10 μM Ac-DEVD-AMC
T4 construct: purchased Biomol International, UK
T4 sequence (P55210 24-198 limits assumed): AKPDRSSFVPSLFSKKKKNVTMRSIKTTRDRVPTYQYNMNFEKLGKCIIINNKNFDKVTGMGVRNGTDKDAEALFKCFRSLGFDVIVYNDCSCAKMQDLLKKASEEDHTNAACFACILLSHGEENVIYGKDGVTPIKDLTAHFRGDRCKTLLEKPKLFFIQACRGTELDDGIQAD
T4 sequence (P55210 207-303 limits assumed): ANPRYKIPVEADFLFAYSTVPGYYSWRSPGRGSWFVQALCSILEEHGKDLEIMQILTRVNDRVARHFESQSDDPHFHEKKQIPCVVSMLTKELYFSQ
Procedure: as §1, §2

T2 sequence (Q14790 217-374 limits assumed): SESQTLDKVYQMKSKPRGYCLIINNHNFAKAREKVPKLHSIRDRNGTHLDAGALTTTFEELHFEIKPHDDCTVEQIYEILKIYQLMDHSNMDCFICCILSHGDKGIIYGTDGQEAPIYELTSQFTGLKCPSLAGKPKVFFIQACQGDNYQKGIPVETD
T2 sequence (Q14790 385-479 limits assumed): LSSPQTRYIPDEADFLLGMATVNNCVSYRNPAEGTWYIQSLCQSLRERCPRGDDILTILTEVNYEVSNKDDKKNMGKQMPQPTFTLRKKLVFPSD

Compound | EC50 [1] [nM] | EC50 [2] [nM] | EC50 [3] [nM] | EC50 [4] [nM]
O=C1C(=O)N(Cc2cn(CCF)nn2)c2ccc(S(=O)(=O)N3CCC[C@H]3COc3ccccc3)cc21 [Compound 10, (S)-1-((1-(2-Fluoroethyl)-1H-[1,2,3]-triazol-4-yl)methyl)-5-(2-phenoxymethyl-pyrrolidine-1-sulfonyl)isatin] | > 5000 | > 5000 | > 5000 | 28.2
O=C1C(=O)N(Cc2ccc(F)cc2)c2ccc(S(=O)(=O)N3CCC[C@H]3COC3CCOCC3)cc21 [Compound 4, (S)-1-(4-Fluorobenzyl)-5-(2-(tetrahydro-2H-pyran-4-yloxymethyl)-pyrrolidine-1-sulfonyl)isatin] | > 5000 | > 5000 | > 5000 | 14.4
O=C1C(=O)N(Cc2ccc(F)cc2)c2ccc(S(=O)(=O)N3CCC[C@H]3COc3ccccc3)cc21 [Compound 15, (S)-1-(4-fluorobenzyl)-5-(2-phenoxymethyl-pyrrolidine-1-sulfonyl)isatin, reference compound] | > 5000 | > 5000 | > 5000 | 19.8
C#CCN1C(=O)C(=O)c2cc(S(=O)(=O)N3CCC[C@H]3COc3ccc(F)cc3F)ccc21 [Compound 25, (S)-1-(2-Propynyl)-5-(2-(2,4-difluorophenoxymethyl)-pyrrolidine-1-sulfonyl)isatin] | > 5000 | > 5000 | > 5000 | 60.4
O=C1C(=O)N(Cc2ccc(F)cc2)c2ccc(S(=O)(=O)N3CCCC3)cc21 [Compound 16, 1-(4-Fluorobenzyl)-5-(pyrrolidine-1-sulfonyl)isatin, reference compound] | > 5000 | > 5000 | > 5000 | 78.6

Second part, the compound after the results:

EC50 [1] [nM] | EC50 [2] [nM] | EC50 [3] [nM] | EC50 [4] [nM] | Compound
> 5000 | > 5000 | > 5000 | 13.5 | O=C1C(=O)N(Cc2ccc(F)cc2)c2ccc(S(=O)(=O)N3CCC[C@H]3COc3cccc(F)c3)cc21 [Compound 1, (S)-1-(4-Fluorobenzyl)-5-(2-(3-fluorophenoxymethyl)-pyrrolidine-1-sulfonyl)isatin]
> 5000 | > 5000 | > 5000 | 2.2 | O=C1C(=O)N(Cc2cn(CCF)nn2)c2ccc(S(=O)(=O)N3CCC[C@H]3COc3ccc(F)cc3F)cc21 [Compound 11, (S)-1-((1-(2-Fluoroethyl)-1H-[1,2,3]-triazol-4-yl)methyl)-5-(2(2,4-difluorophenoxymethyl)-pyrrolidine-1-sulfonyl)isatin]
> 5000 | > 5000 | > 5000 | 29.4 | O=C1C(=O)N(Cc2ccccc2)c2ccc(S(=O)(=O)N3CCC[C@H]3COc3ccccc3)cc21 [Compound 13, (S)-1-benzyl-5-(2-phenoxymethyl-pyrrolidine-1-sulfonyl)isatin, reference compound]
> 5000 | > 5000 | > 5000 | 13 | O=C1C(=O)N(Cc2ccc(F)cc2)c2ccc(S(=O)(=O)N3CCC[C@H]3COc3ccc(F)cc3F)cc21 [Compound 2, (S)-1-(4-Fluorobenzyl)-5-(2-(2,4-difluorophenoxymethyl)-pyrrolidine-1-sulfonyl)isatin]
> 5000 | > 5000 | > 5000 | 8 | O=C1C(=O)N(Cc2ccc(F)cc2)c2ccc(S(=O)(=O)N3CCC[C@H]3COc3ccc(F)cc3)cc21 [Compound 22, (S)-1-(4-Fluorobenzyl)-5-(2-(4-fluorophenoxymethyl)-pyrrolidine-1-sulfonyl)isatin]
> 5000 | > 5000 | > 5000 | 2.3 | O=C1C(=O)N(Cc2ccc(F)cc2)c2ccc(S(=O)(=O)N3CCC[C@H]3COc3ccncn3)cc21 [Compound 5, (S)-1-(4-Fluorobenzyl)-5-(2-(pyrimidin-4-yloxymethyl)-pyrrolidine-1-sulfonyl)isatin]
> 5000 | > 5000 | > 5000 | 25.3 | O=C1C(=O)N(Cc2ccc(I)cc2)c2ccc(S(=O)(=O)N3CCC[C@H]3COc3ccccc3)cc21 [Compound 14, (S)-1-(4-iodobenzyl)-5-(2-phenoxymethyl-pyrrolidine-1-sulfonyl)isatin, reference compound]
